For orientation: melting point means the temperature, or range, at which the solid turns liquid. `CCCCCCCCCCCCCCCCCCS(=O)c1cc2ccccc2c(N)c1O` (configuration not stated) yielded a melting point of 95 to 97 °C. Regarding `COCOc1c(NC(=O)NCc2cccnc2)cc(OC)cc1C(C)(C)C`, the melting point is 108 to 109 °C. The same measure for `O=C(c1ccccc1)c1cccc2c1SCC2C(=O)O` (configuration not stated): 153 to 156 °C; for `O=C(c1ccc2ccn(CCOc3ccc(CC(OCC(F)(F)F)C(=O)O)cc3)c2n1)C1CC1` (configuration not stated): 113 °C; for `CCCCC(=O)OCC1OC(n2cnc3c(OC)nc(N)nc32)C(O)C1O` (configuration not stated): 105 °C.

The compound `CCCCOc1ccc2c(c1)C(NS(C)(=O)=O)CC(C)(C)O2` (configuration not stated) came in with a melting point of 123 to 127 °C. The same measure for `O=C1C(CC23CC(c4ccccc42)c2ccccc23)OCCN1Cc1ccccc1` (configuration not stated): 155 to 156 °C; for `CCC(CC)CNC(=O)c1ccc2c(c1)N(C(C)CN1CCCC1)c1ccccc1S2` (racemic): 115 °C. In the case of `COc1cc(N(C)C)nc(N2CCN(Cc3ccc(CNC(C)=O)cc3)CC2)n1` it was 115 to 118 °C; in that of `CCOC(=O)CC(=O)c1cc(F)c(F)cc1F`, 57 to 59 °C. In the case of `Cc1csc2ncc(C(C)(O)CCc3ccccc3)n12` (configuration not stated) it was 131 to 133 °C; in that of `Cc1cc(C)c(C(CO)c2ccccc2)c(O)c1C` (configuration not stated), 103 to 104 °C. `O=C(NCc1cccnc1)c1cc(N2CCN(Cc3ccc(F)cc3)C2=O)n[nH]1` displayed a melting point of 251 to 253 °C. Take `Cn1ccc(C=C[N+](=O)[O-])c1`: the melting point lay in the range of 90 to 92 °C.

For the compound `CC12CCC(O)CC1=CCC1C2CCC2(C)C(=NC3CC3)CCC12` (configuration not stated), the melting point came out at 187 °C.

The compound `O=C(NC1(COc2ccc(Br)cc2)COC1)OCc1ccccc1` yielded a melting point of 101 to 103 °C. In the case of `COC(=O)c1[nH]c2c(C)ccc(Cl)c2c1C(=O)OC` it was 173 to 174 °C. In the case of `CCOC(=O)C1=C(c2ccc(-c3ocnc3C)cc2)NC(C)=C(C(=O)Nc2ccccn2)C1c1ccccc1Cl` (configuration not stated) it was 176 to 179 °C; in that of `O=C(CN1CCC(Cc2ccc(F)cc2)CC1)Nc1ccc2[nH]c(=S)[nH]c2c1`, 266 to 268 °C; in that of `Cc1cc(-c2ccccc2)nn1CCN`, 131 to 132 °C. Compound `CCC(CC)C(=O)Nc1ccco1` yielded a melting point of 100 °C. The same measure for `Cn1cnc(COc2nc3c(cc2-c2ccsc2)nnn3-c2ccccc2F)n1`: 174 to 176 °C; for `COc1nc(N)c(Cl)cc1C(=O)CCC1CCN(CC(C)C)CC1`: 128 °C. In the case of `CC(C)CCSC1C(O)C(CO)OC1n1ccc(=O)[nH]c1=O` (configuration not stated) it was 66 to 67 °C.

Regarding `O=C(c1c(C2CC2)nn2ccccc12)C1CC1`, the melting point was 102 to 104 °C. Regarding `Nc1ccc(S(=O)(=O)Nc2ccccc2C(=O)NCCCn2ccnc2)cc1`, the melting point fell in the range of 171 to 175 °C. The same measure for `CCOc1cc2c(cc1OCC)C(C(S)(C#N)c1ccccc1)=NCC2` (configuration not stated): 118 to 119 °C; for `N=C(Nc1ccc(Cl)cc1)Nc1ncccc1OCc1c(F)cccc1Cl`: 168 to 170 °C; for `CS(=O)CCC1=NS(=O)(=O)NC(N)=N1` (configuration not stated): 180 to 182 °C.

Consider `O=C1CNCCN1c1cccc([N+](=O)[O-])c1`, for which the melting point was in the range of 137 to 139 °C. In the case of `Cc1cc(=O)n(-c2cc3c(cc2F)OC(CC#N)C(=O)N3)c(=O)[nH]1` (configuration not stated) it was above 230 °C. The same measure for `Cc1nc2c(s1)CC(=O)CC2`: 95 to 96 °C; for `COCCCNS(=O)(=O)NC(=O)OCCCc1ccc(OCCOC)cc1Oc1ncc(Cl)cc1Cl`: 87.9 to 89 °C. In the case of `CC(C)C1(Cl)Cc2cc(OCC(=O)O)cc(Cl)c2C1=O` (configuration not stated) it was 142 °C; in that of `CC(C)(O)C1C(=O)N2C(C(=O)OCc3ccccc3)=C(Sc3ccccc3)CC12` (configuration not stated), 133 to 136 °C. As to `COc1ccc2c3c([nH]c2c1[N+](=O)[O-])C(=O)CC3`, the melting point came out at 228 °C. The same measure for `O=C(NC(=O)c1ccccc1Cl)Nc1cc(C(F)(F)F)c(Br)cc1Br`: 191 °C; for `COC(=O)/C=C/c1ccc(N)nc1`: 173 to 175 °C; for `CCn1nc2oc(CO)c(C)c2c1C`: 124 to 126 °C. The same measure for `CC(C)c1cnc(NC(=O)Cc2csc(N)n2)s1`: 201 to 203 °C; for `Cc1ccc2ccc(N3C(=O)c4ccccc4C3CC(=O)CCC(C)C)nc2n1` (configuration not stated): 155 °C; for `CC(C(=O)c1c(O)c2cccnc2n(-c2ccccc2)c1=O)c1ccccc1` (configuration not stated): 140 to 151 °C.

Compound `CN1CCC(CO)(OCc2ccccc2F)CC1` came in with a melting point of 104 to 108 °C.

With `COc1ccc(N2CCN(c3c(C)c(C)c4c(c3C)CC(C)(CO)O4)CC2)cc1` (configuration not stated), the melting point lay within 137 to 139 °C. In the case of `CN1C[C@@H](C(=O)OC(C)(C)C)N(C(=O)OCc2ccccc2)C1=O` it was 102 to 103 °C; in that of `O=C1C=CC(=O)C2=C1OCCO2`, 156 °C; in that of `Cc1nn(-c2ccc(C#N)c(Cl)c2)c(C)c1Cc1ccc(C(=O)N2CC(O)C2)cc1`, 115 to 117 °C. As for `Cc1c(Cl)ccc2c1[nH]c1c(C(=O)NO)cccc12`, the melting point is 200 °C. Compound `O=C1C=c2c(c3c4ccccc4sc3c3[nH]c4ccccc4c23)=N1` showed a melting point above 300 °C. For `O=C(O)CCCc1cc2cc(Cl)ccc2n1S(=O)(=O)c1ccccn1`, the melting point turned out to be 192 °C. In the case of `CCOC(=O)c1cc2ccc(N(CC)CC)cc2oc1=O` it was 77 to 78 °C; in that of `COc1ccc(S(=O)(=O)Nc2cccnc2Nc2ccc(OC(=O)N(C)C)cc2)cc1`, 202 to 203 °C; in that of `c1ccc2c(c1)[C@H](N1CCCCC1)C[C@@H]2N1CCCCC1`, 114 to 115 °C.

For `CCc1nc2c(N)nc3ccccc3c2n1CC#Cc1ccc([N+](=O)[O-])cc1`, the melting point lay within 190 to 206 °C. For `O=C1OCCC1=Cc1ccccc1OCC(O)CN1CCC(c2ccc3ccccc3c2)CC1` (configuration not stated), the melting point fell in the range of 127 to 128 °C. In the case of `CCC(C)C(NC(=O)C(CSC(C)=O)C(F)(F)F)C(=O)O` (configuration not stated) it was 81 to 85 °C; in that of `COC=C(C(=O)OC)c1ccccc1CBr`, 88 to 90 °C; in that of `Nc1ccnn1-c1c(Cl)cc(C(F)(F)F)cc1Cl`, 90 to 94 °C. The same measure for `CC=NN(C(=O)c1ccc(Cl)cc1)c1ccc(OC)c(F)c1`: 97 to 99 °C. The same measure for `CCOC(=O)C1=Cc2cc(C)ccc2SC1C(F)(F)F` (configuration not stated): 93.1 to 94.7 °C.

With `O=S(=O)(NC1CCCCC1)c1ccc(Nc2nccc(Cl)n2)cc1`, the melting point was in the range of 202 to 204 °C. Take `CN1C(=O)CC(=O)N(c2ccccc2)c2ccccc21`: the melting point lay within 144 to 146 °C. In the case of `CCNC(=O)c1c([Si](C)(C)C)ccc(C(C)=O)c1Cl` it was 78 to 80 °C. With `COc1ccccc1CN[C@H]1CCCN[C@H]1C(C)(C)C` (relative stereo), the melting point is above 251 °C.

Take `C=C[C@H](C)[C@@](N)(C(N)=O)c1ccccc1` (relative stereo): the melting point turned out to be 90 °C.

Compound `OCCOCC(O)c1ccc(OCc2ccccc2)cc1` (configuration not stated) displayed a melting point of 116 to 117 °C.

Turning to `CCOC(=O)/C(=N\O[C@H]1CC[C@H](Cl)CC1)c1csc(N)n1`, the melting point was determined as 155 °C.

The values are drawn from a melting point compilation (Tetko et al.; mined from patent text by program, amines drawn as free bases though some values may be those of a salt).
